Our source for the Ki values is patent US11203574B2 (BioCryst Pharmaceuticals, Inc., priority 2014, dated 2021).

Like-named read-outs stand apart in the source and are kept apart here.

In this test the target is human plasma kallikrein (Homo sapiens (Human), UniProt P03952). The experiment in a line: Plasma kallikrein activity assay (chromogenic substrate S2302). The format is biochemical. The settings on record: 2 nM kallikrein, 80 μM S2302, 30° C., pH 7.8, Ki by Cheng-Prusoff equation, values given as ranges.
human plasma kallikrein, sequence (P03952 whole entry, looked up): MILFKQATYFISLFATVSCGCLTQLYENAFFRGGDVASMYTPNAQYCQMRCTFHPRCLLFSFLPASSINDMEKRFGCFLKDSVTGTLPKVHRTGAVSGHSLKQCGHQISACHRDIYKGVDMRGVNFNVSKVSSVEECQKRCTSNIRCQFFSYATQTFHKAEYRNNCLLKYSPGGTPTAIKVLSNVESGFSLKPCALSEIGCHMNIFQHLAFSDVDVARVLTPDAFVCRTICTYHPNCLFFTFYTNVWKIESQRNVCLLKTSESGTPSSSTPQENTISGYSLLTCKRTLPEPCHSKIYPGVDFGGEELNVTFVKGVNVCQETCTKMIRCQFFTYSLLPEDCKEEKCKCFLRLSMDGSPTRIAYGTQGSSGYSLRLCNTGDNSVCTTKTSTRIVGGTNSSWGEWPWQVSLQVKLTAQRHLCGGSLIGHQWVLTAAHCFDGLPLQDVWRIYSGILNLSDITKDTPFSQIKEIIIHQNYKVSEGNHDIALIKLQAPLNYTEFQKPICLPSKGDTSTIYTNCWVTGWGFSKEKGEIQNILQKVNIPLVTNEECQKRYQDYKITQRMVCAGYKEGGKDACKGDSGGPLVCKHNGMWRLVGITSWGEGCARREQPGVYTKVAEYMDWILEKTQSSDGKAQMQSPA
human plasma kallikrein, sequence (P03952 whole entry partner, looked up): as the sequence (P03952 whole entry, looked up) above

One may read the Ki as a measure of affinity in units of concentration, obtained from inhibition or displacement. Consider `NCc1cccc(-n2nc(C(F)(F)F)cc2C(=O)Nc2cccc(C(NCC3CC3)c3cccc(N)c3)c2)c1` (stereo not drawn) [102b, 1-(3-(aminomethyl)phenyl)-N-(3-((3-aminophenyl)(cyclopropylmethylamino)methyl)phenyl)-3-(trifluoromethyl)-1H-pyrazole-5-carboxamide], for which the inhibitory constant (Ki) (read-out: Ki) lay within 0.1 to 50 nM.
Regarding `NCc1cccc(-n2nc(C(F)(F)F)cc2C(=O)Nc2cccc(C(CCC3CC3)c3cc[nH]c3)c2)c1` (stereo not drawn) [103b, 1-(3-(aminomethyl)phenyl)-N-(3-(3-cyclopropyl-1-(1H-pyrrol-3-yl)propyl)phenyl)-3-(trifluoromethyl)-1H-pyrazole-5-carboxamide], the Ki (read-out: Ki) lay in the range of 0.1 to 50 nM.
As for `Cn1cc(C(NCC2CC2)c2cccc(NC(=O)c3cc(C(F)(F)F)nn3-c3cccc(CN)c3)c2)cn1` (stereo not drawn) [104f, 1-(3-(aminomethyl)phenyl)-N-(3-((cyclopropylmethylamino)(1-methyl-1H-pyrazol-4-yl)methyl)phenyl)-3-(trifluoromethyl)-1H-pyrazole-5-carboxamide], for the setting “read-out: Ki”, the Ki lay within 0.1 to 50 nM.
Consider `COc1ccc(C(NCC2CC2)c2cccc(NC(=O)c3cc(C(F)(F)F)nn3-c3cccc(CN)c3)c2)cc1` (stereo not drawn) [105g, 1-(3-(Aminomethyl)phenyl)-N-(3-(((cyclopropylmethyl)amino)(4-methoxyphenyl)methyl)phenyl)-3-(trifluoromethyl)-1H-pyrazole-5-carboxamide], for which, for the setting “read-out: Ki”, the Ki was in the range of 0.1 to 50 nM.
With `NCc1cccc(-n2nc(C(F)(F)F)cc2C(=O)Nc2cccc(C(NCC3CC3)c3ccccc3OCc3ccccc3)c2)c1` (stereo not drawn) [106a, 1-(3-(aminomethyl)phenyl)-N-(3-((2-(benzyloxy)phenyl)(cyclopropylmethylamino)methyl)phenyl)-3-(trifluoromethyl)-1H-pyrazole-5-carboxamide], the Ki (read-out: Ki) is 0.1 to 50 nM.
Take `COc1cccc(C(NCC2CC2)c2cccc(NC(=O)c3cc(C(F)(F)F)nn3-c3cccc(CN)c3)c2)c1` (stereo not drawn) [109f, 1-(3-(Aminomethyl)phenyl)-N-(3-((cyclopropylmethylamino)(3-methoxyphenyl)methyl)phenyl)-3-(trifluoromethyl)-1H-pyrazole-5-carboxamide]: the Ki (read-out: Ki) is 0.1 to 50 nM.
Take `Cc1cccc(C(NCC2CC2)c2cccc(NC(=O)c3cc(C(F)(F)F)nn3-c3cccc(CN)c3)c2)c1` (stereo not drawn) [110f, 1-(3-(Aminomethyl)phenyl)-N-(3-((cyclopropylmethylamino)(m-tolyl)methyl)phenyl)-3-(trifluoromethyl)-1H-pyrazole-5-carboxamide]: the Ki (read-out: Ki) lay in the range of 0.1 to 50 nM.
Take `NCc1cccc(-n2nc(C(F)(F)F)cc2C(=O)Nc2cccc(C(NCC3CC3)c3cccc(C(F)(F)F)c3)c2)c1` (stereo not drawn) [111f, 1-(3-(Aminomethyl)phenyl)-N-(3-((cyclopropylmethylamino)(3-(trifluoromethyl)phenyl)methyl)phenyl)-3-(trifluoromethyl)-1H-pyrazole-5-carboxamide]: the Ki (read-out: Ki) was 0.1 to 50 nM.
Still for that read-out and setting: then `NCc1cccc(-n2nc(C(F)(F)F)cc2C(=O)Nc2cccc(C(NCC3CC3)c3ccc(S(N)(=O)=O)cc3)c2)c1` (stereo not drawn) [112g, 1-(3-(aminomethyl)phenyl)-N-(3-((cyclopropylmethylamino)(4-sulfamoylphenyl)methyl)phenyl)-3-(trifluoromethyl)-1H-pyrazole-5-carboxamide], with 0.1 to 50 nM.
Turning to `CS(=O)(=O)c1ccc(C(NCC2CC2)c2cccc(NC(=O)c3cc(C(F)(F)F)nn3-c3cccc(CN)c3)c2)cc1` (stereo not drawn) [113f, 1-(3-(aminomethyl)phenyl)-N-(3-((cyclopropylmethylamino)(4-(methylsulfonyl)phenyl)methyl)phenyl)-3-(trifluoromethyl)-1H-pyrazole-5-carboxamide], the Ki (read-out: Ki) was 0.1 to 50 nM.
The same measure, in the same setting: in the case of `CS(=O)(=O)c1cccc(C(NCC2CC2)c2cccc(NC(=O)c3cc(C(F)(F)F)nn3-c3cccc(CN)c3)c2)c1` (stereo not drawn) [114f, 1-(3-(aminomethyl)phenyl)-N-(3-((cyclopropylmethylamino)(3-(methylsulfonyl)phenyl)methyl)phenyl)-3-(trifluoromethyl)-1H-pyrazole-5-carboxamide] it was 0.1 to 50 nM.
Turning to `NCc1cccc(-n2nc(C(F)(F)F)cc2C(=O)Nc2cccc(C(NC(=O)C3CC3)c3ccccc3)c2)c1` (stereo not drawn) [115e, 1-(3-(aminomethyl)phenyl)-N-(3-(cyclopropanecarboxamido(phenyl)methyl)phenyl)-3-(trifluoromethyl)-1H-pyrazole-5-carboxamide], under “read-out: Ki”, the Ki lay in the range of 50 to 100 nM.
On to `CCc1cccc(C(NCC2CC2)c2cccc(NC(=O)c3cc(C(F)(F)F)nn3-c3cccc(CN)c3)c2)c1` (stereo not drawn) [116e, 1-(3-(aminomethyl)phenyl)-N-(3-((cyclopropylmethylamino)(3-ethylphenyl)methyl)phenyl)-3-(trifluoromethyl)-1H-pyrazole-5-carboxamide], for which the Ki (read-out: Ki) was 0.1 to 50 nM.
In the case of `NCc1cccc(-n2nc(C(F)(F)F)cc2C(=O)Nc2cccc(C(NCC3CC3)c3ccccc3F)c2)c1` (stereo not drawn) [117e, 1-(3-(aminomethyl)phenyl)-N-(3-((cyclopropylmethylamino)(2-fluorophenyl)methyl)phenyl)-3-(trifluoromethyl)-1H-pyrazole-5-carboxamide], the Ki (read-out: Ki) fell in the range of 0.1 to 50 nM.
Same read-out and setting: then `NCc1cccc(-n2nc(C(F)(F)F)cc2C(=O)Nc2cccc(C(NCC3CC3)c3c4ccccc4c(Cl)c4ccccc34)c2)c1` (stereo not drawn) [118f, 1-(3-(aminomethyl)phenyl)-N-(3-((10-chloroanthracen-9-yl)(cyclopropylmethylamino)methyl)phenyl)-3-(trifluoromethyl)-1H-pyrazole-5-carboxamide], with 0.1 to 50 nM.
Still for that read-out and setting: then `CS(=O)(=O)c1ccccc1C(NCC1CC1)c1cccc(NC(=O)c2cc(C(F)(F)F)nn2-c2cccc(CN)c2)c1` (stereo not drawn) [121f, 1-(3-(aminomethyl)phenyl)-N-(3-((cyclopropylmethylamino)(2-(methylsulfonyl)phenyl)methyl)phenyl)-3-(trifluoromethyl)-1H-pyrazole-5-carboxamide], with 0.1 to 50 nM; and `Cc1ccc(C(NCC2CC2)c2cccc(NC(=O)c3cc(C(F)(F)F)nn3-c3cccc(CN)c3)c2)cc1` (stereo not drawn) [122g, 1-(3-(aminomethyl)phenyl)-N-(3-(((cyclopropylmethyl)amino)(p-tolyl)methyl)phenyl)-3-(trifluoromethyl)-1H-pyrazole-5-carboxamide], with 0.1 to 50 nM.
For the compound `NCc1cccc(-n2nc(C(F)(F)F)cc2C(=O)Nc2cccc(C(NCC3CC3)c3cccc(OC(F)(F)F)c3)c2)c1` (stereo not drawn) [124f, 1-(3-(aminomethyl)phenyl)-N-(3-((cyclopropylmethylamino)(3-(trifluoromethoxy)phenyl)methyl)phenyl)-3-(trifluoromethyl)-1H-pyrazole-5-carboxamide], where the note is “read-out: Ki”, the Ki was in the range of 0.1 to 50 nM.
In the case of `NCc1cccc(-n2nc(C(F)(F)F)cc2C(=O)Nc2cccc(C(NCC3CC3)c3cc4ccccc4c4ccccc34)c2)c1` (stereo not drawn) [125g, 1-(3-(Aminomethyl)phenyl)-N-(3-((cyclopropylmethylamino)(phenanthren-9-yl)methyl)phenyl)-3-(trifluoromethyl)-1H-pyrazole-5-carboxamide], the Ki (Ki) lay within 0.1 to 50 nM.
Regarding `CN(C)c1ccc(C(NCC2CC2)c2cccc(NC(=O)c3cc(C(F)(F)F)nn3-c3cccc(CN)c3)c2)c2ccccc12` (stereo not drawn) [126g, 2-(3-Aminomethyl-phenyl)-5-trifluoromethyl-2H-pyrazole-3-carboxylic acid {3-[(cyclopropylmethyl-amino)-(4-dimethylamino-naphthalen-1-yl)-methyl]-phenyl}-amide], under “read-out: Ki”, the Ki lay within 0.1 to 50 nM.
On to `CCCOc1ccc(C(NCC2CC2)c2cccc(NC(=O)c3cc(C(F)(F)F)nn3-c3cccc(CN)c3)c2)cc1` (stereo not drawn) [127f, 1-(3-(Aminomethyl)phenyl)-N-(3-((cyclopropylmethylamino)(4-propoxyphenyl)methyl)phenyl)-3-(trifluoromethyl)-1H-pyrazole-5-carboxamide], for which the Ki (read-out: Ki) is 0.1 to 50 nM.
Still for that read-out and setting: in the case of `NCc1cccc(-n2nc(C(F)(F)F)cc2C(=O)Nc2cccc(C(NCC3CC3)c3ccc4ccccc4c3)c2)c1` (stereo not drawn) [128g, 1-(3-(aminomethyl)phenyl)-N-(3-((cyclopropylmethylamino)(naphthalen-2-yl)methyl)phenyl)-3-(trifluoromethyl)-1H-pyrazole-5-carboxamide] it was 0.1 to 50 nM.
Take `NCc1cccc(-n2nc(C(F)(F)F)cc2C(=O)Nc2cccc(C(NCC3CC3)c3cccc4ccccc34)c2)c1` (stereo not drawn) [129f, 1-(3-(aminomethyl)phenyl)-N-(3-((cyclopropylmethylamino)(naphthalen-1-yl)methyl)phenyl)-3-(trifluoromethyl)-1H-pyrazole-5-carboxamide]: the Ki (read-out: Ki) lay within 0.1 to 50 nM.
On to `NCc1cccc(-n2nc(C(F)(F)F)cc2C(=O)Nc2cc(C(NCC3CC3)c3cccc(N)c3)ccc2F)c1` (stereo not drawn) [131b, 1-(3-(aminomethyl)phenyl)-N-(5-((3-aminophenyl)(cyclopropylmethylamino)methyl)-2-fluorophenyl)-3-(trifluoromethyl)-1H-pyrazole-5-carboxamide], for which the Ki (read-out: Ki) lay within 0.1 to 50 nM.
On to `NCc1cccc(-n2nc(C(F)(F)F)cc2C(=O)Nc2cc(C(NCC3CC3)c3ccncc3)ccc2F)c1` (stereo not drawn) [132f, 1-(3-(aminomethyl)phenyl)-N-(5-(((cyclopropylmethyl)amino)(pyridin-4-yl)methyl)-2-fluorophenyl)-3-(trifluoromethyl)-1H-pyrazole-5-carboxamide], for which the Ki (read-out: Ki) is 0.1 to 50 nM.
With `NCc1cccc(-n2nc(C(F)(F)F)cc2C(=O)Nc2cccc(C(NCC3CC3)c3ccc(-c4ccccc4)cc3)c2)c1` (stereo not drawn) [133g, 1-(3-(aminomethyl)phenyl)-N-(3-(biphenyl-4-yl(cyclopropylmethylamino)methyl)phenyl)-3-(trifluoromethyl)-1H-pyrazole-5-carboxamide], under “read-out: Ki”, the Ki is 0.1 to 50 nM.
Same read-out and setting: then `COc1ccc2cc(C(NCC3CC3)c3cccc(NC(=O)c4cc(C(F)(F)F)nn4-c4cccc(CN)c4)c3)ccc2c1` (stereo not drawn) [134f, 1-(3-(aminomethyl)phenyl)-N-(3-((cyclopropylmethylamino)(6-methoxynaphthalen-2-yl)methyl)phenyl)-3-(trifluoromethyl)-1H-pyrazole-5-carboxamide], with 0.1 to 50 nM.
